Laboratory results reported in US12286401B2, “Small molecules that sensitize HIV-1 infected cells to antibody dependent cellular cytotoxicity” (THE TRUSTEES OF THE UNIVERSITY OF PENNSYLVANIA, priority 2018, dated 2025).

What was measured:
[1] = tested on: CH58TF infected primary CD4+ T-cells; test: Recognition of HIV-1 infected cells by 17b (flow cytometry cell-surface staining); format: cell-based; conditions: Human immunodeficiency virus 1, T-cell, read-out: Fold Over DMSO (17b, n = 1)
Description: (§1) Cell-surface staining of primary CD4+ T cells from healthy HIV uninfected individuals or CEM-NKr cells is performed, as described in Prevost, “Influence of the Envelope gp120 Phe 43 Cavity on HIV-1 Sensitivity to Antibody-Dependent Cell-Mediated Cytotoxicity Responses,” 2017, J. Virol 91; Richard, “CD4 mimetics sensitize HIV-1-infected cells to ADCC,” 2015, Proc. Natl. Acad. Sci. USA, 112:E2687-2694; Richard, “Small CD4 Mimetics Prevent HIV-1 Uninfected Bystander CD4+ T Cell Killing Mediated by Antibody-dependent Cell-mediated Cytotoxicity,” 2016, EBioMedicine 3:122-134; Veillette, “The HIV-1 gp120 CD4-Bound Conformation Is Preferentially Targeted by Antibody-Dependent Cellular Cytotoxicity-Mediating Antibodies in Sera from HIV-1-Infected Individuals,” 2015, J. Virol., 89:545-551; Veillette, “Interaction with cellular CD4 exposes HIV-1 envelope epitopes targeted by antibody-dependent cell-mediated cytotoxicity,” 2014, J. Virol., 88:2633-2644; Richard, “Uninfected Bystander Cells Impact the Measurement of HIV-Specific Antibody-Dependent Cellular Cytotoxicity Responses,” 2018, MBio. 9(2): e00358-18; Richard, “BST-2 Expression Modulates Small CD4-Mimetic Sensitization of HIV-1-Infected Cells to Antibody-Dependent Cellular Cytotoxicity,” 2017, J. Virol. 91(11):e00219-17. Binding of HIV-1 infected cells by HIV+ sera (1:1000 dilution) or anti-Env Abs (such as 17b) is performed […] in vitro infection at 37° C. in presence of different concentrations of the MCG analogs or with equivalent volume of vehicle (DMSO). Cells infected with HIV-1 primary isolates are stained intracellularly for HIV-1 p24 using the Cytofix/Cytoperm Fixation/Permeabilization Kit (BD Biosciences, Mississauga, ON, Canada) and then fluorescent anti-p24 mAb (PE-anti-p24, clone KC57; Beckman Coulter/Immunotech, Hialeah, FL) (1:100 final concentration). The percentage of infected cells (p24^+ or GFP+ cells) is determined by gating the living cell population based on the viability dye staining. Samples are analyzed on an LSRII cytometer (BD Biosciences, Mississauga, ON, Canada) and data analysis is performed using FlowJo vX0.7 (Tree Star, Ashland, OR, USA).
(§2) Briefly, Primary CD4 T cells isolated from PBMC were infected with HIV-1CH58TF for 48 hours. For cell surface staining, 5 μg/ml 17b (FIG. 15A) or 1:1000 diluted HIV+ plasma (n=15) (FIG. 15B) were used in the presence of the different MCG analogs (50 μM), (+)-BNM-III-170 or with an equivalent volume of vehicle (DMSO). An Alexa Fluor 647-conjugated anti-human IgG secondary Ab was then used for fluorescent labeling. For ADCC (FIG. 15C), infected cells were used as target cells in a FACS-based ADCC assay that measures the killing of infected (p24+ cells). See, Madani, 2016, J. Virol., 90:5031-5046. The assay determines susceptibility to ADCC mediated by a 1/1,000 dilution of plasma from 15 HIV-1-infected individuals in the presence of the different MCG analogs (50 μM), (+)-BNM-III-170 (50 μM) or with an equivalent volume of vehicle (DMSO). Correlation between cell-surface staining with HIV+ plasma and ADCC was calculated using the Spearman rank correlation (FIG. 15D).

[2] = tested on: HIV-1JR-FL EnvΔCT expressed at the surface of HOS cells; test: Cell-based ELISA (CBE), 17b readout; conditions: MCG analogs 50 μM; BNM-III-170 5 μM; 2G12 and DMSO normalized
Description: Detection of trimeric HIV-1 Env at the surface of HOS cells was performed by cell-based ELISA, as described in Desormeaux, “The highly conserved layer-3 component of the HIV-1 gp120 inner domain is critical for CD4-required conformational transitions,” J. Virol. 87:2549-2562; Alsahafi, “Effects of the I559P gp41 change on the conformation and function of the human immunodeficiency virus (HIV-1) membrane envelope glycoprotein trimer,” 2015, PLoS One 10:e0122111; and Veillette, “Conformational evaluation of HIV-1 trimeric envelope glycoproteins using a cell-based ELISA assay,” 2014, J. Vis. Exp., 91:51995. To enhance cell-surface expression of HIV-1 EnvRF a stop codon was introduced to replace the codon for Gly 711, truncating the cytoplasmic tail (ACT). Briefly, HOS cells were seeded in T-75 flasks (3×10^6 cells per flask) and transfected the next day with 22.5 μg of Env-expressing plasmids (wild-type and mutants S375W, S375T, H66A, A582T/L587A, etc) using the standard polyethylenimine (PEI, Polyscience Inc, PA, USA) transfection method. Twenty-four hours after transfection, cells were plated in 384-wells plates (2×10^4 cells per well). One day later, cells were washed twice with blocking buffer (10 mg/mL non-fat dry milk, 1.8 mM CaCl2), 1 mM MgCl2, 25 mM Tris, pH 7.5 and 140 mM NaCl) and then incubated for 30 minutes at room temperature with different concentrations of MCG analogs or equivalent volume of vehicle (DMSO). Cells were then incubated for an additional 1 h at room temperature with anti-HIV-1 Env monoclonal antibodies recognizing CD4-induced gp120 epitopes (17b, A32), CD4-binding site gp120 epitopes (VRC03, VRC01, F105, and b12), gp120 V3 glycans (19b, PGT126, PGT122, and 10.1074), gp120 outer domain (2G12), and gp120-gp41 interface (PGT151 and VRC34) epitopes. All ligands were diluted in blocking buffer. A horseradish peroxidase-conjugated antibody specific for the Fc region of human or mouse IgG (Pierce) was then incubated with the samples for 45 minutes at room temperature. For all conditions, cells were washed 5 times with blocking buffer and 5 times with washing buffer (1.8 mM CaCl2), 1 mM MgCl2, 25 mM Tris, pH 7.5 and 140 mM NaCl). HRP enzyme activity was determined after the addition of 20 μl per well of a 1:1 mix of Western Lightning oxidizing and luminol reagents (Perkin Elmer Life Sciences). Light emission was measured with an LB 941 TriStar luminometer (Berthold Technologies) and analysis with Graph Pad software.
The data of Table 2 is given as the fold over BNM-III-170 (5 μM) of Cell-Based ELISA with MCG Analogs (50 μM)—17b readout, 2G12 and DMSO normalized.
To identify molecules able to expose vulnerable Env epitopes, a cell-based ELISA (CBE) assay was adapted, capable of measuring conformational changes of membrane-bound trimeric Env as described in Veillette, 2014, J. Vis. Exp. doi:10.3791/51995:51995; Haim, 2011, PLoS Pathog 7:e1002101, into a high-throughput screening (HTS) platform (FIG. 10A). Briefly, the cytoplasmic-tail deleted HIV-1JR-FL Tier-2/3 Env was expressed on the surface of HOS cells in a 384-well-plate format. The cytoplasmic tail of Env was deleted to enhance Env expression at the cell surface and therefore enhance the sensitivity of the CBE assay. See, Veilette and Haim, 2009, PLoS Pathog 5:e100036. Small molecules or, as a positive control, soluble (sCD4) were added to expose the HIV-1JR-FL EnvΔCT epitope that can be recognized by the CD4i antibody 17b. See, Wyatt, 1995, J. Virol. 69:5723-5733; Rizzuto, 1998, Science 280:1949-1953.
17b binding was detected by a horseradish peroxidase-conjugated (HRP) second antibody, and HRP enzyme activity was measured by Western Lightning oxidizing and luminal reagents. 17b binding in the presence of sCD4 was set as the control (FIG. 10B, blue dots), small molecules that enhanced 17b binding above 25% of the one induced by sCD4 were retested in quadruplicate and only one molecule (UM0059920) was deemed a true positive (FIG. 10B, red dots). […]

[3] = tested on: CH58TF infected primary CD4+ T-cells; test: HIV+ patient sera/plasma recognition of CH58TF infected primary CD4+ T-cells (flow cytometry cell-surface staining); format: cell-based, HIV-1; conditions: Human immunodeficiency virus 1, T-cell, read-out: Fold Over DMSO (patient sera, n = 3)
Description: as §1
HIV+ Patient Sera (n=3) Recognition of CH58TF Infected Primary CD4+ T-Cells
Staining with patient sera and 50 μM of compounds given as a fold change over DMSO (vehicle).
as §2

| SMILES | fold induction at 50 µM [1] | Fold over BNM-III-170 - 17b binding (±0.05) [2] [fold] | fold induction at 50 µM [3] |
| --- | --- | --- | --- |
| CCS(=O)(=O)N1CCC[C@H](C(=O)Nc2ccc(Br)c(Cl)c2)C1 [(S)-MCG-III-085-C06] | 3.1 | 0.34 | 1.28 |
| O=C(Nc1ccc(Cl)c(F)c1)[C@H]1CCCN(S(=O)(=O)c2ccccc2)C1 [(S)-MCG-III-085-D01] | 6.4 | 0.45 | 5.95 |
| O=C(Nc1ccc(F)c(Cl)c1)[C@H]1CCCN(S(=O)(=O)c2ccccc2)C1 [(S)-MCG-III-085-D02] | 2.54 | 0.18 | 1.37 |
| O=C(Nc1ccc(Cl)c(Cl)c1)[C@H]1CCCN(S(=O)(=O)c2ccccc2)C1 [(S)-MCG-III-085-D03] | 4.87 | 0.20 | 2.03 |
| O=C(Nc1ccc(F)c(F)c1)[C@H]1CCCN(S(=O)(=O)c2ccccc2)C1 [(S)-MCG-III-085-D04] | 3.15 | 0.28 | 1.84 |
| O=C(Nc1ccc(Cl)c(Br)c1)[C@H]1CCCN(S(=O)(=O)c2ccccc2)C1 [(S)-MCG-III-085-D05] | 5.58 | 0.10 | 1.55 |
| O=C(Nc1ccc(Br)c(Cl)c1)[C@H]1CCCN(S(=O)(=O)c2ccccc2)C1 [(S)-MCG-III-085-D06] | 6.46 | 0.19 | 2 |
| COc1ccc(S(=O)(=O)N2CCC[C@H](C(=O)Nc3ccc(Cl)c(F)c3)C2)cc1 [(S)-MCG-III-116-A05] | – | 0.29 | 1.1 |
| N#Cc1ccc(S(=O)(=O)N2CCC[C@H](C(=O)Nc3ccc(Cl)c(F)c3)C2)cc1 [(S)-MCG-III-116-A06] | – | 0.31 | 1.15 |
| CC(=O)Nc1ccc(S(=O)(=O)N2CCC[C@H](C(=O)Nc3ccc(Cl)c(F)c3)C2)cc1 [(S)-MCG-III-117] | – | 0.21 | 1.89 |
| O=C(Nc1ccc(Cl)c(F)c1)[C@H]1CCCN(S(=O)(=O)c2ccc(Br)cc2)C1 [(S)-MCG-III-128] | – | 0.21 | 1.07 |
| O=C(Nc1ccc(Cl)c(F)c1)[C@H]1CCCN(C(=O)Oc2ccccc2)C1 [(S)-MCG-III-188-A03] | 3.11 | 0.47 | 4.61 |
| O=C(Oc1ccc(Cl)c(F)c1)[C@H]1CCCN(S(=O)(=O)c2ccccc2)C1 [(S)-MCG-III-213-A03] | 0.928 | 0.05 | 1.08 |
| CS(=O)(=O)N1CCC(C(=O)Nc2ccc(Cl)c(F)c2)CC1 [MCG-III-101] | – | 0.21 | 1.14 |
| O=C(Nc1ccc(Cl)c(F)c1)C1CCN(S(=O)(=O)c2ccccc2)C1 (stereo not shown) [MCG-III-157-A03] | – | 0.33 | 1.57 |
| CCS(=O)(=O)N1CCCC(C(=O)Nc2ccc(Cl)c(F)c2)C1 (stereo not shown) [MCG-III-157-B02] | – | 0.68 | 2.62 |
| CS(=O)(=O)N1CCCC(NC(=O)c2ccc(Cl)c(F)c2)C1 (stereo not shown) [MCG-III-157-C01] | – | 0.08 | 1.04 |
| O=C(Nc1ccc(Cl)c(F)c1)C1CN(S(=O)(=O)c2ccccc2)CCO1 (stereo not shown) [MCG-III-211-A03] | 2.64 | 0.28 | 1.7 |
| CC(C)(C)OC(=O)N1CCN(S(=O)(=O)c2ccccc2)CC1C(=O)Nc1ccc(Cl)c(F)c1 (stereo not shown) [MCG-III-212-A03] | 1.1 | 0.06 | 1.24 |
| O=C(Nc1ccc(Cl)c(F)c1)C1Cc2ccccc2N(S(=O)(=O)c2ccccc2)C1 (stereo not shown) [MCG-III-214-A03] | 0.911 | 0.09 | 1.05 |
| Cn1cnc(S(=O)(=O)N2CC(C(=O)Nc3ccc(Cl)c(F)c3)Cc3ccccc32)c1 (stereo not shown) [MCG-III-214-A04] | 1.15 | 0.18 | 0.924 |
